Test results reported in the NIST ThermoML archive (doi:10.1016/j.jct.2005.09.003).

Assay: xn = mol fraction of the nth substance listed
Conditions: Liquid

CCCCCCCl [1-chlorohexane] + CCCCCCCC
mass density [kg/m3]
Conditions	x2 = 0	x2 = 0.1016	x2 = 0.1996	x2 = 0.3153	x2 = 0.3948	x2 = 0.4862	x2 = 0.5938	x2 = 0.6966	x2 = 0.794	x2 = 0.9001
318.15 K, 39620 kPa	–	–	–	–	–	–	–	–	–	728.95
328.15 K, 100 kPa	845.18	824.75	–	784.31	770.08	754.25	736.27	719.76	704.68	688.86
328.15 K, 2130 kPa	847.12	826.75	807.96	786.36	772.17	756.35	738.33	721.87	706.7	690.84
328.15 K, 4150 kPa	849.17	828.82	810.05	788.45	774.26	758.45	740.42	723.96	708.79	692.91
328.15 K, 6180 kPa	851.16	830.83	812.05	790.48	776.28	760.49	742.45	725.98	710.81	694.93
328.15 K, 8210 kPa	853.13	832.8	814.05	792.45	778.27	762.48	744.42	728	712.79	696.92
328.15 K, 10230 kPa	855.02	834.72	815.97	794.38	780.21	764.41	746.38	729.93	714.74	698.84
328.15 K, 11250 kPa	855.98	835.67	816.92	795.34	781.17	765.37	747.33	730.88	715.68	699.79
328.15 K, 12260 kPa	856.91	836.61	817.87	796.3	782.13	766.33	748.28	731.81	716.64	700.74
328.15 K, 14290 kPa	858.76	838.48	819.73	798.16	784	768.18	750.17	733.7	718.5	702.6
328.15 K, 16310 kPa	860.59	840.3	821.56	799.99	785.83	770.03	752	735.52	720.32	704.39
328.15 K, 18340 kPa	862.35	842.06	823.33	801.75	787.59	771.78	753.76	737.29	722.07	706.15
328.15 K, 20370 kPa	864.12	843.84	825.11	803.54	789.37	–	–	–	–	–
